Results as given in patent US11230717B2, “Plants having increased tolerance to herbicides” (BASF SE, priority 2013, dated 2022).

Tests used:
[1] = biological target: T1, Hordeum HPPD variant L320N (Hordeum vulgare, UniProt O48604, A164G/L320N/R146V/R147D/R148G); test: HPPD activity assay, in vitro characterization of HPPD mutants; format: biochemical; conditions: normalized to wild-type
T1 construct: His (N); made in house; host or cells: E. coli BL21 (DE3)
Description: (§1) HPPD produces homogentisic acid and CO2 from 4-hydroxyphenylpyruvate (4-HPP) and O2. The activity assay for HPPD is based on the analysis of homogentisic acid by reversed phase HPLC.
(§2) The assay mixture can contain 150 mM potassium phosphate buffer pH 7.0, 50 mM L-ascorbic acid, 100 μM Catalase (Sigma-Aldrich), 1 μM FeSO4 and 0.2 units of purified HPPD enzyme in a total volume of 505 μl. 1 unit is defined as the amount of enzyme that is required to produce 1 nmol of HGA per minute at 20° C.
(§3) After a preincubation of 30 min the reaction is started by adding 4-HPP to a final concentration of 0.05 mM. The reaction is allowed to proceed for 45 min at room temperature. The reaction is stopped by the addition of 50 μl of 4.5 M phosphoric acid. The sample is filtered using a […] pore size PVDF filtration device.
(§4) 5 μl of the cleared sample is analyzed on an UPLC HSS T3 column (particle size 1.8 μm, dimensions 2,1×50 mm; Waters) by isocratic elution using 90% 20 mM NaH2PO4 pH 2.2, 10% methanol (v/v).
(§5) HGA is detected electrochemically at 750 mV (mode: DC; polarity: positive) and quantified by integrating peak areas (Empower software; Waters).
(§6) Inhibitors are dissolved in DMSO (dimethylsulfoxide) to a concentration of 0.5 mM. From this stock solution serial five-fold dilutions are prepared in DMSO, which are used in the assay. The respective inhibitor solution accounts for 1% of the assay volume. […] Activities are normalized by setting the uninhibited enzyme activity to 100%. IC50 values are calculated using non-linear regression.
(§7) Purified, mutant HPPD enzymes are obtained by the methods described above. Dose response and kinetic measurements are carried out using the described HPPD activity assay. Apparent michaelis constants (Km) and maximal reaction velocities (Vmax) are calculated by non-linear regression with the software GraphPad Prism 5 (GraphPad Software, La Jolla, USA) using a substrate inhibition model. […] Weighted means (by standard error) of Km and IC50 values are calculated from at least three independent experiments.
(§8) Field performance of the optimized HPPD enzyme, which is used as a herbicide tolerance trait may depend not only on its lack of sensitivity towards HPPD inhibiting herbicides but also on its activity. To assess the potential performance of a herbicide tolerance trait a tolerance index (TI) is calculated using the following formula: […]

[2] = biological target: T2, Hordeum HPPD variant L353M, P321R, L320Q (Hordeum vulgare, UniProt O48604, L320Q/L353M/P321R); test: as above; format: biochemical; conditions: normalized to wild-type
T2 construct: His (N); made in house; host or cells: E. coli BL21 (DE3)
T2 sequence (O48604 whole entry R146V/R147D/R148G/A164G/L320Q/P321R/L353M): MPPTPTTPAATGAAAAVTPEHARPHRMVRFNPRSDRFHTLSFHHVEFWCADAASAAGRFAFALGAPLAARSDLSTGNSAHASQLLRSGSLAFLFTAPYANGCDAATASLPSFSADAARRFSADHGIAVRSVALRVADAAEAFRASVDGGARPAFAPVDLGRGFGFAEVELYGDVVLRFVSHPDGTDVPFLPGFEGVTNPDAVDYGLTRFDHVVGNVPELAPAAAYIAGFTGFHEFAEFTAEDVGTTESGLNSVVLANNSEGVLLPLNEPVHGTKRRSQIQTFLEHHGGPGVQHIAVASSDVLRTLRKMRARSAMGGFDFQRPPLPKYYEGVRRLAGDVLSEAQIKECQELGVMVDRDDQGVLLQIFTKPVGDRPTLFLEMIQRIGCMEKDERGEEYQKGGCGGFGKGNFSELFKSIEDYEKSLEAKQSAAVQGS
Description: as §1, §2, §3, §4, §5, §6, §7, §8

[3] = biological target: T3, Arabidopsis HPPD variant F381I (Arabidopsis thaliana, UniProt P93836, F381I); test: as above; format: biochemical; conditions: normalized to wildtype
T3 construct: His6 (N); made in house; host or cells: E. coli BL21 (DE3)
T3 sequence (P93836 whole entry F381I): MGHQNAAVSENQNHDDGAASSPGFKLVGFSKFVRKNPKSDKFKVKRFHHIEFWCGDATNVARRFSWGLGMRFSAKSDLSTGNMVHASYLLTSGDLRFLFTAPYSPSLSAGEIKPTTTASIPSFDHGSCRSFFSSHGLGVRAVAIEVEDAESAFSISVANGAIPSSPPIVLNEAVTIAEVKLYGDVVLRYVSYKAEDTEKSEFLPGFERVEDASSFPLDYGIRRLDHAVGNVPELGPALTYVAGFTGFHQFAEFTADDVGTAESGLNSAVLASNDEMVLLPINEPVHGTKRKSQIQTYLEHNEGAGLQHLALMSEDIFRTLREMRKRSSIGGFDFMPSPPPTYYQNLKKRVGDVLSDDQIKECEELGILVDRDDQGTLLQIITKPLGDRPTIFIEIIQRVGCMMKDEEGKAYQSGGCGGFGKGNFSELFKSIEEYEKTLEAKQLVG
Description: as §1, §2, §3, §4, §5, §6, §7, §8

[4] = system: transgenic Corn plants; test: Greenhouse testing of transgenic Corn plants (homozygous T2), herbicide spray test; format: in vivo, Zea mays
Description: Transgenic plants expressing heterologous HPPD or HST enzymes are tested for tolerance against HPPD-inhibiting herbicides in greenhouse experiments.
For post emergence treatment, the test plants are first grown to a height of 3 to 15 cm, depending on the plant habit, and only then treated with the herbicides. For this purpose, the test plants are either sown directly and grown in the same containers, or they are first grown separately and transplanted into the test containers a few days prior to treatment. For testing of T0 plants, cuttings can be used. In the case of soybean plants, an optimal shoot for cutting is about 7.5 to 10 cm tall, with at least two nodes present. Each cutting is taken from the original transformant (mother plant) and dipped into rooting hormone powder (indole-3-butyric acid, IBA). The cutting is then placed in oasis wedges inside a bio-dome. Wild type cuttings are also taken simultaneously to serve as controls. The cuttings are kept in the bio-dome for 5-7 days and then transplanted to pots and then acclimated in the growth chamber for two more days. Subsequently, the cuttings are transferred to the greenhouse, acclimated for approximately 4 days, and then subjected to spray tests as indicated.
Depending on the species, the plants are kept at 10-25° C. or 20-35° C. The test period ex-tends over 3 weeks. During this time, the plants are tended and their response to the individual treatments is evaluated. Herbicide injury evaluations are taken at 2 and 3 weeks after treatment. Plant injury is rated on a scale of 0 to 9, 0 being no injury and 9 being complete death.
Transgenic corn plants were sprayed with doses from 62.5-250 g/ha with the benzamide-derivative HPPD-inhibiting herbicide and injury evaluations were taken two weeks after treatment. […] As depicted in Table 19, control plants were severely injured by all doses of herbicide applied, with 86% of leaf material being damaged at the highest rate applied. […] Application of 250 g/ha active ingredient resulted only in 10% leaf damage (event 1) in transgenic plants which gave in direct comparison with wild-type plants (injury value is 86%) an 8-fold increased tolerance at this application rate. In addition, transgenic corn plants comprising a transgene encoding the mutated version of Arabidopsis HPPD with methionine 335 exchanged to histidine, are tolerant for the benzamide-derivative inhibitor tested in the present invention.

[5] = system: transgenic Soy plants; test: Greenhouse testing of transgenic Soy plants (T2), herbicide spray test; format: in vivo, Glycine max

T1 sequence (O48604 whole entry R146V/R147D/R148G/A164G/L320N): as the sequence (O48604 whole entry R146V/R147D/R148G/A164G/L320Q/P321R/L353M) above, with Q320N, R321P, M353L counted along it

SMILES: Cn1nnnc1NC(=O)c1c(F)cc(Cl)c(S(C)(=O)=O)c1Cl [Inhibitor 1, 2,4-dichloro-6-fluoro-3-methylsulfonyl-N-(1-methyltetrazol-5-yl)benzamide]
- Normalized tolerance index (TI) [1]: 5.2
- Normalized tolerance index (TI) [2]: 2.5

SMILES: CSc1c(Cl)cc(F)c(C(=O)Nc2ncnn2C)c1Cl [Inhibitor 3, 2,4-dichloro-6-fluoro-3-methylsulfanyl-N-(2-methyl-1,2,4-triazol-3-yl)benzamide]
- Normalized tolerance index (TI) [3]: 0.1
- Injury evaluation, scale 0-100% ([4]; Corn AtL385V, I393L Event 1, 62.5 g/ha, two weeks): 3%
- Injury evaluation, scale 0-100% ([4]; Corn AtL385V, I393L Event 1, 125 g/ha, two weeks): 7%
- Injury evaluation, scale 0-100% ([4]; Corn AtL385V, I393L Event 1, 250 g/ha, two weeks): 10%
- Injury evaluation, scale 0-100% ([4]; Corn AtL385V, I393L Event 2, 62.5 g/ha, two weeks): 6%
- Injury evaluation, scale 0-100% ([4]; Corn AtL385V, I393L Event 2, 125 g/ha, two weeks): 10%
- Injury evaluation, scale 0-100% ([4]; Corn AtL385V, I393L Event 2, 250 g/ha, two weeks): 47%
- Injury evaluation, scale 0-100% ([4]; Corn AtM335H, 62.5 g/ha, two weeks): 3%
- Injury evaluation, scale 0-100% ([4]; Corn AtM335H, 125 g/ha, two weeks): 4%
- Injury evaluation, scale 0-100% ([4]; Corn AtM335H, 250 g/ha, two weeks): 6%
- Injury evaluation, scale 0-100% ([4]; Corn WT, 62.5 g/ha, two weeks after treatment): 40%
- Injury evaluation, scale 0-100% ([4]; Corn WT, 125 g/ha, two weeks after treatment): 63%
- Injury evaluation, scale 0-100% ([4]; Corn WT, 250 g/ha, two weeks after treatment): 86%
- Injury evaluation, scale 0-100% ([5]; Soy AtHPPD Event 1, 31.25 g/ha, two weeks): 10%
- Injury evaluation, scale 0-100% ([5]; Soy AtHPPD Event 1, 62.5 g/ha, two weeks): 16%
- Injury evaluation, scale 0-100% ([5]; Soy AtHPPD Event 1, 125 g/ha, two weeks): 44%
- Injury evaluation, scale 0-100% ([5]; Soy AtHPPD Event 2, 31.25 g/ha, two weeks): 13%
- Injury evaluation, scale 0-100% ([5]; Soy AtHPPD Event 2, 62.5 g/ha, two weeks): 23%
- Injury evaluation, scale 0-100% ([5]; Soy AtHPPD Event 2, 125 g/ha, two weeks): 40%
- Injury evaluation, scale 0-100% ([5]; Soy AtL385V, I393L Event 2, 31.25 g/ha, two weeks): 20%
- Injury evaluation, scale 0-100% ([5]; Soy AtL385V, I393L Event 2, 62.5 g/ha, two weeks): 35%
- Injury evaluation, scale 0-100% ([5]; Soy AtL385V, I393L Event 2, 125 g/ha, two weeks): 38%
- Injury evaluation, scale 0-100% ([5]; Soy AtM335H Event 1, 31.25 g/ha, two weeks): 10%
- Injury evaluation, scale 0-100% ([5]; Soy AtM335H Event 1, 62.5 g/ha, two weeks): 21%
- Injury evaluation, scale 0-100% ([5]; Soy AtM335H Event 1, 125 g/ha, two weeks): 33%
- Injury evaluation, scale 0-100% ([5]; Soy AtM335H Event 2, 31.25 g/ha, two weeks): 14%
- Injury evaluation, scale 0-100% ([5]; Soy AtM335H Event 2, 62.5 g/ha, two weeks): 29%
- Injury evaluation, scale 0-100% ([5]; Soy AtM335H Event 2, 125 g/ha, two weeks): 31%
- Injury evaluation, scale 0-100% ([5]; Soy AtM335Y, 31.25 g/ha, two weeks): 9%
- Injury evaluation, scale 0-100% ([5]; Soy AtM335Y, 62.5 g/ha, two weeks): 45%
- Injury evaluation, scale 0-100% ([5]; Soy AtM335Y, 125 g/ha, two weeks): 46%
- Injury evaluation, scale 0-100% ([5]; Soy AtP336A, E363Q, L385V, I393L, 31.25 g/ha, two weeks): 30%
- Injury evaluation, scale 0-100% ([5]; Soy AtP336A, E363Q, L385V, I393L, 62.5 g/ha, two weeks): 30%
- Injury evaluation, scale 0-100% ([5]; Soy AtP336A, E363Q, L385V, I393L, 125 g/ha, two weeks): 50%
- Injury evaluation, scale 0-100% ([5]; Soy GmHPPD1, 31.25 g/ha, two weeks): 15%
- Injury evaluation, scale 0-100% ([5]; Soy GmHPPD1, 62.5 g/ha, two weeks): 29%
- Injury evaluation, scale 0-100% ([5]; Soy GmHPPD1, 125 g/ha, two weeks): 46%
- Injury evaluation, scale 0-100% ([5]; Soy, transgene none, 31.25 g/ha, two weeks after treatment): 49%
- Injury evaluation, scale 0-100% ([5]; Soy, transgene none, 62.5 g/ha, two weeks after treatment): 68%
- Injury evaluation, scale 0-100% ([5]; Soy, transgene none, 125 g/ha, two weeks after treatment): 79%
